# Source: PMC6150735, “Molecular Docking-Based Design and Development of a Highly Selective Probe Substrate for UDP-glucuronosyltransferase 1A10” (Molecular Pharmaceutics, 2018)
# Tests used:
# [1] = Absorbance spectra of coumarin derivatives; format: physicochemical; conditions: 10 μM, 100 mM Tris–HCl pH 7.4, 10% dimethyl sulfoxide
# Procedure: The absorbance spectra of 10 μM coumarin derivatives at 100 mM Tris–HCl pH 7.4 containing 10% dimethyl sulfoxide were measured using a Hitachi U-2000 Spectrophotometer (Tokyo, Japan). Excitation and emission fluorescence spectra of 0.1 μM coumarin derivatives in 100 mM Tris-HCl pH 7.4 were measured using a Shimadzu RF-5000 spectrophotofluorometer (Tokyo, Japan). The excitation spectra was from 200 to 420 at 460 nm emission and the emission spectra was from 400 to 600 at 390 nm excitation (data in Supplementary Table S1 and Figures S1 and S2). The effect of pH on fluorescence intensity was determined at 405 nm excitation and 460 nm emission, in the presence of 1.5% trichloroacetic acid, 100 mM phosphate buffers at pH 5, 6, 7, 8, and 9, or 1.6 M glycine–NaOH pH 10.4.
# [2] = molecular target: T1, UGT1A10 mutant 1A10-H210M (Homo sapiens, UniProt Q9HAW8, H210M); assay: Glucuronidation kinetics by UGT1A10 mutant 1A10-H210M (fluorescence decrease, 96-well plate); format: biochemical; conditions: mutant versus wild-type UGT1A10
# T1 construct: His-tag; made in house; host or cells: baculovirus-infected SF9 insect cells
# T1 sequence (Q9HAW8 26-530 H210M): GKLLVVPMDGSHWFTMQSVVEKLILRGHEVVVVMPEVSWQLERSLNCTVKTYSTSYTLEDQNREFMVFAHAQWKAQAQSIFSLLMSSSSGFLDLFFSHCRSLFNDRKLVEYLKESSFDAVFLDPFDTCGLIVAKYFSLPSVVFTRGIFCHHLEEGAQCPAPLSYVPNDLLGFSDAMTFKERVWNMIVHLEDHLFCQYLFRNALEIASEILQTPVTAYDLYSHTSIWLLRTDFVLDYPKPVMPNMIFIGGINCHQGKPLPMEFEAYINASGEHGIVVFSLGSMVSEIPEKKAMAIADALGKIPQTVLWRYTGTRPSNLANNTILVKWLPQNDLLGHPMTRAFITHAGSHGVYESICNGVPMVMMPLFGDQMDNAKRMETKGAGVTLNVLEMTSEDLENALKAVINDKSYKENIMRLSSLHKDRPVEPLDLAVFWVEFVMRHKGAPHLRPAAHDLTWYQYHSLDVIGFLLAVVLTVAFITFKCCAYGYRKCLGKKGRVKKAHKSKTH
# Procedure: The UGT1A10 mutant 1A10-H210 M was prepared according to the QuikChange methodology, using the cloned UGT1A10 in pFastBac[42] as a template and the following two oligonucleotides:
# The entire coding sequence of UGT1A10 in the mutant clone was sequenced, and subsequently, recombinant baculovirus was prepared and used to express the mutant enzyme in baculovirus-infected SF9 insect cells.
# The incubation mixtures for glucuronidation assays contained 100 mM Tris-HCl buffer pH 7.4, 2.5 mM MgCl2, 0.5 mM UDPGA, recombinant UGT, or microsomes as the enzyme source and 0–15 μM of the test aglycone substrate. When the incubation mixtures contained microsomes, alamethicin was used at a final concentration of 12.5 μg/mL, but it was not included in the recombinant enzyme assays.[43] In the first experiments three negative control samples were tested, namely (i) without the substrate 7-hydroxycoumarin derivative, (ii) without the cofactor UDPGA, or (iii) without the enzyme source. In subsequent experiments, the control samples lacked the enzyme source since it gave the highest fluorescence background. […] Fluorescence spectra (excitation 200–420 nm; emission 400–600 nm) or fluorescence decrease at 390 nm excitation and 460 nm emission, were measured in these preliminary experiments, using a Shimadzu RF-5000 spectrophotofluorometer.
# Most of the glucuronidation assays were carried out in 96 multiwell plate format, and incubations were carried out in 100 μL and at 37 °C, in the presence of Tris–HCl buffer pH 7.4, UDPGA, and the tested 7-hydroxycoumarin derivative, at the indicated concentrations. Fluorescence decline in the multiwell plate experiments was monitored every other minute, for 40 min, using an excitation filter at 405 nm and detection at 460 nm, in a Victor2 1420 Multilabel counter (PerkinElmer, Life Sciences, Turku, Finland). The fluorescence values were transformed into molarity using the aglycone substrates for making the respective standard curves. […] Enzyme catalyzed glucuronidation rate was calculated by subtracting the blank value from the full reaction value. […]
smiles,measurement,setting,value
"O=c1oc2cc(O)ccc2cc1-n1cncn1 [Compound 6, 7-Hydroxy-3-(1H-1,2,4-triazol-1-yl)-2H-chromen-2-one]",Amax,[1],392 nm
same,ε abs,[1],20 500 cmx1*Mx1
same,Change of Km by the H210M mutation (in words),[2],considerably increased
